Results on three compounds are retold here after ChEMBL document CHEMBL3879892, “Small molecule inhibition of PDZ-domain interaction” (2011).

For assay [1], the target named is T1, Membrane-associated guanylate kinase, WW and PDZ domain-containing protein 3 (Homo sapiens) (UniProt Q5TCQ9).
T1 sequence (whole entry): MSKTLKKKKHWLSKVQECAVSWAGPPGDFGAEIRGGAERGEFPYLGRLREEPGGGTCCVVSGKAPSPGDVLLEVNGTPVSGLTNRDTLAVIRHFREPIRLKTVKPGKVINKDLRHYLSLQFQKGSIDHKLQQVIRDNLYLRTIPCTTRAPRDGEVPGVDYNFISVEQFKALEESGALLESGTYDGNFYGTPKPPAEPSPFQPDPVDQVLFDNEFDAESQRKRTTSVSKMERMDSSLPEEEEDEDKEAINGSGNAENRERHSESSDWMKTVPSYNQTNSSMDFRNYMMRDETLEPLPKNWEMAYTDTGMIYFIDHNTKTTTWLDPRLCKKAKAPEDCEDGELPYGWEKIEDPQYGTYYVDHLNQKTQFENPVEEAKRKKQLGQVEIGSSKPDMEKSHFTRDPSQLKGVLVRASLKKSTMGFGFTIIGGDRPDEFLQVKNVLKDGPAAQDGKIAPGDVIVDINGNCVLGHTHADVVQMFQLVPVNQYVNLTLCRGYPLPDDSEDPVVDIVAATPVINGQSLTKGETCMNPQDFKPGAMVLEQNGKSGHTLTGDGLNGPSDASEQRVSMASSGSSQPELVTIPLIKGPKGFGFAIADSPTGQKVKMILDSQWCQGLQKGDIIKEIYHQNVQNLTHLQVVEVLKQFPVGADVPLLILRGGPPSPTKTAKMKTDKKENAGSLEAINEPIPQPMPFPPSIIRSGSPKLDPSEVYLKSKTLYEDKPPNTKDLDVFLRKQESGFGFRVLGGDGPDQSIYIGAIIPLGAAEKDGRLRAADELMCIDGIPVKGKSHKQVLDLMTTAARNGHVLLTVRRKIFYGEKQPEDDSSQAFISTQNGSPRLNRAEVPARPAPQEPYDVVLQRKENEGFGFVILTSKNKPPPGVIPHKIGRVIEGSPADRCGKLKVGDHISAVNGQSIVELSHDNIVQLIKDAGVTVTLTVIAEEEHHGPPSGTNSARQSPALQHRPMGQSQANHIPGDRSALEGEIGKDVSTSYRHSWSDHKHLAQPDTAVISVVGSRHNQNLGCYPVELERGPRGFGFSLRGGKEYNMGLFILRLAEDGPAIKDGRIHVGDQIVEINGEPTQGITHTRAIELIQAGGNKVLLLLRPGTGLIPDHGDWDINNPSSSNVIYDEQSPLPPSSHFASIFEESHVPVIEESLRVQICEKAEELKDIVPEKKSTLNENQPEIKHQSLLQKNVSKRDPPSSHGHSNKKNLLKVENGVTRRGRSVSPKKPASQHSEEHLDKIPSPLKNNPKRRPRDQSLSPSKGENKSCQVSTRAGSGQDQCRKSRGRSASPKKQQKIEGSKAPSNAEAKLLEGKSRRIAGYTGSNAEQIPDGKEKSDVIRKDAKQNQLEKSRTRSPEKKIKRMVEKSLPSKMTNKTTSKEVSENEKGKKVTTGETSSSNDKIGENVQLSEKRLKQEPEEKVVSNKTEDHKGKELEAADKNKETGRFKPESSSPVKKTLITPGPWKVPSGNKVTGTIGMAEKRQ
Put plainly: Inhibition of fluorescein labeled PFDEDQHTQITWV-COOH interaction with GST-fused MAGI-3 second PDZ domain (unknown origin) expressed in Escherichia coli BL21 (DE3) by fluorescence polarization assay.

A further assay concerns NCI-H460. In words: Inhibition of Dvl PDZ domain interaction with Fz protein in human NCI-H460 cells assessed as induction of apoptosis at 10 uM after 3 days by annexin V-FITC staining-based flow cytometry (reference value: 7.59 to 10.24%). It is filed as cell-based. Set-up: scale not given: the % may be the effect or the level left.
Assay [2] can be described thus: Antitumor activity against human NCI-H460 cells xenografted in immune deficient nude mouse assessed as tumor growth inhibition at 50 mg/kg, ip administered for 14 days measured after 2 weeks post last dose relative to control. It is filed as functional. Conditions: 336 h, read-out: TGI.
A further assay has as its system LOX. Put plainly: Inhibition of Dvl PDZ domain interaction with Fz protein in human LOX cells assessed as induction of apoptosis at 10 uM after 3 days by annexin V-FITC staining-based flow cytometry (reference value: 8.81 to 10.85%). It is filed as cell-based. Set-up: scale not given: the % may be the effect or the level left.
Assay [3] is described as follows: Antitumor activity against human LOX cells xenografted in immune deficient nude mouse assessed as tumor growth inhibition at 50 mg/kg, ip administered for 14 days measured after 2 weeks post last dose relative to control. It is filed as functional. The following applies: 336 h, read-out: TGI.

Active and inactive are the calls of the source. The rule behind the calls is not given here.

As for `CCCCC(O)c1[nH]c2cc(C)c(C(=O)O)cc2c1CCc1ccccc1` (centres undefined), the inhibition result in assay [1] was “Active”. The Activity in the assay with NCI-H460 was 14.6 to 28.3%; in the assay on LOX, 13.4 to 18.5%. Moreover, the inhibition in vivo at 50 mg/kg fell in the range of 20 to 34% in assay [2] and 66 to 82% in assay [3].

Take `Cc1cc2[nH]c(C(O)c3ccccc3)c(CCCc3ccccc3)c2cc1C(=O)O` (centres undefined): the Activity in the assay with NCI-H460 was 37%; with LOX, 65.3%.

For `Cc1cc2[nH]c(C(O)CCc3ccccc3)c(CCc3ccccc3)c2cc1C(=O)O` (centres undefined), the Activity with NCI-H460 is 36.7%; with LOX, 34.7%.
